Source: patent US11466033B2 (ENANTA PHARMACEUTICALS, INC., priority 2019, dated 2022)
pIC50: −log10 of the molar value.

molecular target: ASK1 (Homo sapiens (Human), UniProt Q99683); test: HTRF KinEASE assay, inhibition of ASK1; assay type: biochemical; conditions: ASK1 kinase, 100 μM ATP, 1 μM STK3 peptide substrate, TR-FRET
Protocol: Assay HTRF® KinEASE™ Assay
ASK1 was purchased from Thermofisher (Catalogue #PV4011), ATP was purchased from Sigma (Catalogue #A7699), HTRF® KinEASE™ Assay System was obtained from Cisbio (Bedford, Mass.). ½ Area plate was purchased from Perkin Elmer (Catalogue ##6005560). HTRF® KinEASE™-STK is a generic method for measuring serine/threonine kinase activities using a time-resolved fluorescence resonance energy transfer (TR-FRET) immunoassay. The IC50 value for each compound was determined in the presence of compound (various concentration from 0 to 10 μM) and a fixed amount of ATP and peptide substrates. The test compound, 1 μM STK3 peptide substrate, and […] of ASK1 kinase are incubated with kinase reaction buffer containing 50 mM HEPES Ph 7.5, 0.01% BRIJ-35, 10 mM MgCl2, and 1 mM EGTA for 30 minutes. 100 μM ATP is added to start kinase reaction and incubated for 3 hours. The STK3-antibody labeled with Eu^3+-Cryptate and 125 nM streptavidin-XL665 are mixed in a single addition with stop reagents provided by the Cisbio kit used to stop the kinase reaction. Fluorescence is detected using an Envision Multilabeled 2014 reader from PerkinElmer. The Fluorescence is measured at 615 nm (Cryptate) and 665 nm (XL665) and a ratio of 665 nm/615 nm is calculated for each well. The resulting TR-FRET is proportional to the phosphorylation level. Staurosporine was used as the positive control. IC50 was determined by Xlfit 5.3.
By using above method, the inhibition of ASK1 was evaluated for the compounds of Formula (I). Example numbers correspond to those in Table 6.

ASK1, sequence (Q99683 whole entry): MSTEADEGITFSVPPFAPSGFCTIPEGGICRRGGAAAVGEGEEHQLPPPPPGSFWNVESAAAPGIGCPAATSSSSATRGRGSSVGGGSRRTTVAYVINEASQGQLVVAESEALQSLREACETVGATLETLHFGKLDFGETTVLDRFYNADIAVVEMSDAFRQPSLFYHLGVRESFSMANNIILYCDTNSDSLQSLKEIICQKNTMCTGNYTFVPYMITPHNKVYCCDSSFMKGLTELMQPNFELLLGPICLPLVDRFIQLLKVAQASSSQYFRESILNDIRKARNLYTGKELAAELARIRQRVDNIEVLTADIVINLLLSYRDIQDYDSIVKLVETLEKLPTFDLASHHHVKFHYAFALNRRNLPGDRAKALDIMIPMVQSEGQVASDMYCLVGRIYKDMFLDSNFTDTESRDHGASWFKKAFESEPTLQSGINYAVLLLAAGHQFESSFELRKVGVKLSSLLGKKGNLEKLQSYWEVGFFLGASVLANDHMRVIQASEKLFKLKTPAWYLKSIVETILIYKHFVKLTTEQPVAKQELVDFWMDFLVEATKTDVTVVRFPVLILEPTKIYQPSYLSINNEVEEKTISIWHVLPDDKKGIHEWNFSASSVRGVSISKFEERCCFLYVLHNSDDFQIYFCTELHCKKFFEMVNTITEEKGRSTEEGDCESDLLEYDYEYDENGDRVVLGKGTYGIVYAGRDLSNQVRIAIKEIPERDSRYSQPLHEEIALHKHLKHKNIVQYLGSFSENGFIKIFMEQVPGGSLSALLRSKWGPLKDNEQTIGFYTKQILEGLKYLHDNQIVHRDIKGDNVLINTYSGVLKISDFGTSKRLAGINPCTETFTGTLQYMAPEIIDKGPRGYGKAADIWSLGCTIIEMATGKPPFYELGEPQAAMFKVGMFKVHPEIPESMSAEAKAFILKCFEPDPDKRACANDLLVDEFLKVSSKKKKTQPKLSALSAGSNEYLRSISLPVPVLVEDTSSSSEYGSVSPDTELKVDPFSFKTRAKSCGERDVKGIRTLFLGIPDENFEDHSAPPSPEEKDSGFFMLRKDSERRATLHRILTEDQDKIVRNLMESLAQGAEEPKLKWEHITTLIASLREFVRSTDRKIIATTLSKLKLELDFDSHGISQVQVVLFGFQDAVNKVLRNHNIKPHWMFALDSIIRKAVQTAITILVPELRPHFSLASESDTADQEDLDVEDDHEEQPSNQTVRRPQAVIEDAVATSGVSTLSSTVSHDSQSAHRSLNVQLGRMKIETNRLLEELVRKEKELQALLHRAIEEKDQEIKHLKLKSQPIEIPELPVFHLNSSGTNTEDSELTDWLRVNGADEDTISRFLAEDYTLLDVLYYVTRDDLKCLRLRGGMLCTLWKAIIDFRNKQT

SMILES	pIC50
CCOC(=O)N1CCc2cc(F)c(C(=O)Nc3cccc(-c4nnc5n4[C@H](C)CC5)n3)cc2C1 [Example 12]	8.00 to 8.90
CCOC(=O)N1CCc2cc(F)c(C(=O)Nc3cccc(-c4nnc5n4[C@@H](C)CC5)n3)cc2C1 [Example 13]	7.00 to 8.00
COc1cc2c(cc1C(=O)Nc1cccc(-c3nnc4n3C(C)(C)CC4)n1)CN(C(=O)OC(C)(C)C)CC2 [Example 14, tert-butyl 7-((6-(5,5-dimethyl-6,7-dihydro-5H-pyrrolo[2,1-c][1,2,4]triazol-3-yl)pyridin-2-yl)carbamoyl)-6-methoxy-3,4-dihydroisoquinoline-2(1H)-carboxylate]	8.00 to 8.90
CCOC(=O)N1CCc2cnc(C(=O)Nc3cccc(-c4nnc5n4[C@H](C)CC5)n3)cc2C1 [Example 15]	8.00 to 8.90
CCOC(=O)N1CCc2cc(OC)c(C(=O)Nc3cccc(-c4nnc5n4CCC5)n3)cc2C1 [Example 21, Ethyl 7-((6-(6,7-dihydro-5H-pyrrolo[2,1-c][1,2,4]triazol-3-yl)pyridin-2-yl)carbamoyl)-6-methoxy-3,4-dihydroisoquinoline-2(1H)-carboxylate]	8.00 to 8.90

More lines, now with the values ahead:

pIC50	SMILES
8.00 to 8.90	CCOC(=O)N1CCc2cc(F)c(C(=O)Nc3cccc(-c4nnc5n4C(C)(C)CC5)n3)cc2C1 [Example 11, Ethyl 7-((6-(5,5-dimethyl-6,7-dihydro-5H-pyrrolo[2,1-c][1,2,4]triazol-3-yl)pyridin-2-yl)carbamoyl)-6-fluoro-3,4-dihydroisoquinoline-2(1H)-carboxylate]
> 8.90	COCCC(=O)N1CCc2cc(OC)c(C(=O)Nc3cccc(-c4nnc5n4C(C)(C)CC5)n3)cc2C1 [Example 16, N-(6-(5,5-dimethyl-6,7-dihydro-5H-pyrrolo[2,1-c][1,2,4]triazol-3-yl)pyridin-2-yl)-6-methoxy-2-(3-methoxypropanoyl)-1,2,3,4-tetrahydroisoquinoline-7-carboxamide]
> 8.90	COc1cc2c(cc1C(=O)Nc1cccc(-c3nnc4n3C(C)(C)CC4)n1)CN(C(=O)C(C)(C)CO)CC2 [Example 17, N-(6-(5,5-dimethyl-6,7-dihydro-5H-pyrrolo[2,1-c][1,2,4]triazol-3-yl)pyridin-2-yl)-2-(3-hydroxy-2,2-dimethylpropanoyl)-6-methoxy-1,2,3,4-tetrahydroisoquinoline-7-carboxamide]
> 8.90	COc1cc2c(cc1C(=O)Nc1cccc(-c3nnc4n3C(C)(C)CC4)n1)CN(C(=O)C[C@H](C)O)CC2 [Example 18, (S)—N-(6-(5,5-dimethyl-6,7-dihydro-5H-pyrrolo[2,1-c][1,2,4]triazol-3-yl)pyridin-2-yl)-2-(3-hydroxybutanoyl)-6-methoxy-1,2,3,4-tetrahydroisoquinoline-7-carboxamide]
> 8.90	COc1cc2c(cc1C(=O)Nc1cccc(-c3nnc4n3C(C)(C)CC4)n1)CN(C(=O)[C@@H](O)CC(C)C)CC2 [Example 19, (S)—N-(6-(5,5-dimethyl-6,7-dihydro-5H-pyrrolo[2,1-c][1,2,4]triazol-3-yl)pyridin-2-yl)-2-(2-hydroxy-4-methylpentanoyl)-6-methoxy-1,2,3,4-tetrahydroisoquinoline-7-carboxamide]
> 8.90	COc1cc2c(cc1C(=O)Nc1cccc(-c3nnc4n3C(C)(C)CC4)n1)CN(C(=O)C(C)(C)O)CC2 [Example 20, N-(6-(5,5-dimethyl-6,7-dihydro-5H-pyrrolo[2,1-c][1,2,4]triazol-3-yl)pyridin-2-yl)-2-(2-hydroxy-2-methylpropanoyl)-6-methoxy-1,2,3,4-tetrahydroisoquinoline-7-carboxamide]
